Article PMC10824666 (Nature Cancer, 2023)
Read-outs that look alike come from different tables or passages of the source. Values belong to the molecule of their own block, whether it stands above or below them.

Key:
Assay in all cases: biochemical
Parameters in all cases: Eurofins DiscoverX kinase panel, competitive binding assay at 1 uM, percent of DMSO control
Details in all cases: competitive binding, percent of DMSO control
ERN1 = ERN1 (Homo sapiens, UniProt O75460)
Outline: (§1)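 Single-point profiling at 1 µM compound in a competition-binding format against 96 kinases, read out as POC relative to control; n = 1.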

NEK6 = NEK6 (Homo sapiens, UniProt Q9HC98)
NEK6, sequence (Q9HC98 whole entry): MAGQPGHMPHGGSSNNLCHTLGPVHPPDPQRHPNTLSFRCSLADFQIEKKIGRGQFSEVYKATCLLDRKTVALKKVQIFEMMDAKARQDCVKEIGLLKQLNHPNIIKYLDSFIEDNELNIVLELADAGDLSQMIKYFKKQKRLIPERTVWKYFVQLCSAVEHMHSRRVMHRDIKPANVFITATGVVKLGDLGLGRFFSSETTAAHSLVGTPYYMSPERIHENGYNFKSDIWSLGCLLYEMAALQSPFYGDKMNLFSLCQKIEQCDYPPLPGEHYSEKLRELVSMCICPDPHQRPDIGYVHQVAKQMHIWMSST
Outline: as §1

EPHA2 = EPHA2 (Homo sapiens, UniProt P29317)
EPHA2, sequence (P29317 whole entry): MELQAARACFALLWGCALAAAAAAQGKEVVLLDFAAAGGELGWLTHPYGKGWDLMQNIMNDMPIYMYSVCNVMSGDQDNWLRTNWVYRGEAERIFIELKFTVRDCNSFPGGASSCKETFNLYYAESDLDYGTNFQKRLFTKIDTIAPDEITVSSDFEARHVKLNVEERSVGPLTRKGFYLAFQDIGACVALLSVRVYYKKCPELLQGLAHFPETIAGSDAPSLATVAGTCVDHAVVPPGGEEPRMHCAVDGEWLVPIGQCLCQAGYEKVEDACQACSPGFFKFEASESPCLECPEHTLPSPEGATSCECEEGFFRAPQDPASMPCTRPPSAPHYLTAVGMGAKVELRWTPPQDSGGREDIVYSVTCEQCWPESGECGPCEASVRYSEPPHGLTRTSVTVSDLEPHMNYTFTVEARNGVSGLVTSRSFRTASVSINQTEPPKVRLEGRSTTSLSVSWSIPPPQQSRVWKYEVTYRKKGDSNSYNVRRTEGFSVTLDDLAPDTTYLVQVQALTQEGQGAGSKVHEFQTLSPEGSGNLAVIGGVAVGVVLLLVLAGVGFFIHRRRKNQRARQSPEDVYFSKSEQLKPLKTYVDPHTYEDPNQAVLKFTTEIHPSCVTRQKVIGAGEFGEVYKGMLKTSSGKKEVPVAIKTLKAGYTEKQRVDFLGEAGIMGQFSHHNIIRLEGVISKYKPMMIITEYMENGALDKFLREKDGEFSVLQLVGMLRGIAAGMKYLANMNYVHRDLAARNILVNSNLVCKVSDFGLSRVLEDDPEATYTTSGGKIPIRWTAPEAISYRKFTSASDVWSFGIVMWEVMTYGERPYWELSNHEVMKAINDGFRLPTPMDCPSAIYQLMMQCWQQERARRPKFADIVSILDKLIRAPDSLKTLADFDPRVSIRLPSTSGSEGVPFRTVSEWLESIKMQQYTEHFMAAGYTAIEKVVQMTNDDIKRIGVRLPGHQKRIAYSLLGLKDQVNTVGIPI
Outline: as §1

MAPK4 = MAPK4 (Homo sapiens, UniProt P31152)
MAPK4, sequence (P31152 whole entry): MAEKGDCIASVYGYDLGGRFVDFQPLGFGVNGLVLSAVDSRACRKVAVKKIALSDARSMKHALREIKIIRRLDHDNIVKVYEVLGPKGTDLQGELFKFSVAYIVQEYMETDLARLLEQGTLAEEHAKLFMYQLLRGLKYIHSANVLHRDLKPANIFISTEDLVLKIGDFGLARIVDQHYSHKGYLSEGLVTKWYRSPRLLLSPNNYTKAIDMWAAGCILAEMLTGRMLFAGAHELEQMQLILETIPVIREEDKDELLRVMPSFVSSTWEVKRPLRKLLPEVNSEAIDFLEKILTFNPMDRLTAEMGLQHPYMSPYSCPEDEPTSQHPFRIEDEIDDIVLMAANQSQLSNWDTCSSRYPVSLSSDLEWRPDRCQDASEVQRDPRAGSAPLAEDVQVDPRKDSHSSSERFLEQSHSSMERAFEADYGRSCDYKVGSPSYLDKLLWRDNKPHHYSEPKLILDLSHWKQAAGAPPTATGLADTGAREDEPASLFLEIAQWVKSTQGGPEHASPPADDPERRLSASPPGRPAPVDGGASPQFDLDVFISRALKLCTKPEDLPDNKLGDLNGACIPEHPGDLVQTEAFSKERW
Outline: as §1

IRAK 4 = biological target: T1, IRAK 4 (Homo sapiens, UniProt Q9NWZ3)
T1 construct: gene IRAK4
T1 sequence (Q9NWZ3 1-460): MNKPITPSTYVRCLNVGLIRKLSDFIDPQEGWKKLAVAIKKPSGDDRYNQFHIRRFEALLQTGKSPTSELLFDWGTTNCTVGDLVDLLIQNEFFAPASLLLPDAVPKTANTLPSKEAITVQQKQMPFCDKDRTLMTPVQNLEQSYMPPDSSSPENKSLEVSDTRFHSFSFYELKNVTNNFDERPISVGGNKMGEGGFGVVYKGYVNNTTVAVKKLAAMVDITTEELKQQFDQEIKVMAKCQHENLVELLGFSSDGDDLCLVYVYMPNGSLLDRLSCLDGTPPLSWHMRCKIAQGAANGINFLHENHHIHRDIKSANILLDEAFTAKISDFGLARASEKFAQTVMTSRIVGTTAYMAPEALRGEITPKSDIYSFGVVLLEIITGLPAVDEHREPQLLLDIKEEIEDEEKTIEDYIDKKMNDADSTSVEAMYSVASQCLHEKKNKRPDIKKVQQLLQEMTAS
Outline: as §1

PIM1 = PIM1 (Homo sapiens, UniProt P11309)
PIM1, sequence (P11309 whole entry): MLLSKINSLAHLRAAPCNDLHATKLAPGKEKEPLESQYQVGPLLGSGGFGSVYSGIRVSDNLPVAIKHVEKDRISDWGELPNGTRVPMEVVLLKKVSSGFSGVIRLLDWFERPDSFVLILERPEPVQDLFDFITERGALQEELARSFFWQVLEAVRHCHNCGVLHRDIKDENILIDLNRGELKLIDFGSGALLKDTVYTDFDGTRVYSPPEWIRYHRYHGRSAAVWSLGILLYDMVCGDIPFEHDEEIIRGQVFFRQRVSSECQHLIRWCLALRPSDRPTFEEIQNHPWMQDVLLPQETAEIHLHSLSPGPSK
Outline: as §1

TGFBR1 = biological target: T2, TGFBR1 (Homo sapiens, UniProt P36897)
T2 sequence (P36897 1-503): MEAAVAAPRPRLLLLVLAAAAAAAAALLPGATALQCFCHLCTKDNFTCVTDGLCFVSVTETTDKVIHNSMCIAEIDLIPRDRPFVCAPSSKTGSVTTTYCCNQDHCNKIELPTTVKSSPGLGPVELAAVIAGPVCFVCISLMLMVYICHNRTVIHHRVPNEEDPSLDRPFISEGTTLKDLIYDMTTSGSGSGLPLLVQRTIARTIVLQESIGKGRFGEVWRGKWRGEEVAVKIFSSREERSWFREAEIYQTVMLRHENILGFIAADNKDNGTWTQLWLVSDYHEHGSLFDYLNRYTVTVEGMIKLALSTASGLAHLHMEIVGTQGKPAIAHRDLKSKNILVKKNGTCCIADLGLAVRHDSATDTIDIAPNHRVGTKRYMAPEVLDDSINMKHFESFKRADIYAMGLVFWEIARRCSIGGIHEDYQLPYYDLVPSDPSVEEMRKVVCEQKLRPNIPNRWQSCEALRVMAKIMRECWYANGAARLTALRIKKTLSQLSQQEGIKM
Outline: as §1

[1] = read-out: Kinome Profiling performed by Eurofins DiscoverX / AM-1882, 1.0 µM / POC
[2] = read-out: Kinome Profiling performed by Eurofins DiscoverX / AM-5308, 1.0 µM / POC
[3] = read-out: Kinome Profiling performed by Eurofins DiscoverX / AM-0277, 1.0 µM / POC

ERN1, sequence (O75460 whole entry): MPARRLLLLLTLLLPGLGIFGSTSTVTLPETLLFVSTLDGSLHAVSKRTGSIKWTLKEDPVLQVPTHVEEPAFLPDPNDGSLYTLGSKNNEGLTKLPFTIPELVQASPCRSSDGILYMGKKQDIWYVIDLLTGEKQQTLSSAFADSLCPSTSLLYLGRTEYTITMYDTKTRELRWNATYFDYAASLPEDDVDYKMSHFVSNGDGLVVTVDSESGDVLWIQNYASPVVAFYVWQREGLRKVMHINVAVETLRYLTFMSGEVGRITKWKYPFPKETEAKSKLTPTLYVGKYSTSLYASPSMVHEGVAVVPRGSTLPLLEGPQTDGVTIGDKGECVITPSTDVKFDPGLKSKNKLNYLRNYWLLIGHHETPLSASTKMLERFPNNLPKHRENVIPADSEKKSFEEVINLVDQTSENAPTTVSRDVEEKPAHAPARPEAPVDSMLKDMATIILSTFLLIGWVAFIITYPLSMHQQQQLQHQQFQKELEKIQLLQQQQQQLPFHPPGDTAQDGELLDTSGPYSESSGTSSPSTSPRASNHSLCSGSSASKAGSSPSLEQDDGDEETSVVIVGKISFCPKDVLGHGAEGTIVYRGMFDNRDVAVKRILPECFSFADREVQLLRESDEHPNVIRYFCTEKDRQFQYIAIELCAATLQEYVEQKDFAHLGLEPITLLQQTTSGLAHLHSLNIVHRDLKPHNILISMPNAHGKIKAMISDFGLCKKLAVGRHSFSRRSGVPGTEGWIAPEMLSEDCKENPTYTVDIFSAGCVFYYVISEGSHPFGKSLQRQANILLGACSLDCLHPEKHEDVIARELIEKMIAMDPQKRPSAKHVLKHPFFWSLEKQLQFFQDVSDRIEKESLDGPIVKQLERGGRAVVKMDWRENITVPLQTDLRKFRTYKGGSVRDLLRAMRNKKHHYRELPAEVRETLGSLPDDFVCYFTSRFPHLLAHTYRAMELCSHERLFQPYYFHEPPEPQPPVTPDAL

remaining activity at 1 µM (ERN1; [1]): 100%
remaining activity at 1 µM (NEK6; [1]): 100%
remaining activity at 1 µM (EPHA2; [1]): 99.5%
remaining activity at 1 µM (MAPK4; [1]): 99%
remaining activity at 1 µM (IRAK 4; [1]): 80%
remaining activity at 1 µM (PIM1; [1]): 88.5%
remaining activity at 1 µM (TGFBR1; [1]): 94%
Structure (SMILES): CC(C)(C)NS(=O)(=O)c1cccc(NC(=O)c2ccc(S(=O)(=O)NC(C)(C)C)cc2N2CCC3(CC2)CC3)c1 [AM-1882]

remaining activity at 1 µM (ERN1; [2]): 80%
remaining activity at 1 µM (NEK6; [2]): 95%
remaining activity at 1 µM (EPHA2; [2]): 92.5%
remaining activity at 1 µM (MAPK4; [2]): 81.5%
remaining activity at 1 µM (IRAK 4; [2]): 95.5%
remaining activity at 1 µM (PIM1; [2]): 91%
remaining activity at 1 µM (TGFBR1; [2]): 100%
Structure (SMILES): C[C@@H]1CN(c2cccc(NC(=O)c3ccc(NS(=O)(=O)CCO)cc3N3CCC4(CC3)CC4)n2)CCO1 [AM-5308]

remaining activity at 1 µM (ERN1; [3]): 100%
remaining activity at 1 µM (NEK6; [3]): 94%
remaining activity at 1 µM (EPHA2; [3]): 80%
remaining activity at 1 µM (MAPK4; [3]): 98%
remaining activity at 1 µM (IRAK 4; [3]): 100%
remaining activity at 1 µM (PIM1; [3]): 100%
remaining activity at 1 µM (TGFBR1; [3]): 73%
Structure (SMILES): CC(C)(CO)Nc1ccc(C(=O)Nc2cccc(S(=O)(=O)C3CCCC3)c2)c(N2CCC3(CC2)CC3)n1 [AM-0277]
